{"source": "patent US9957247B2", "about": "“SecA inhibitors and methods of making and using thereof” (Georgia State University Research Foundation, Inc., priority 2012, dated 2018)", "key": {"BaSecA1": {"target": "BaSecA1 (Bacillus anthracis, UniProt Q81X26)", "sequence (Q81X26 whole entry, looked up)": "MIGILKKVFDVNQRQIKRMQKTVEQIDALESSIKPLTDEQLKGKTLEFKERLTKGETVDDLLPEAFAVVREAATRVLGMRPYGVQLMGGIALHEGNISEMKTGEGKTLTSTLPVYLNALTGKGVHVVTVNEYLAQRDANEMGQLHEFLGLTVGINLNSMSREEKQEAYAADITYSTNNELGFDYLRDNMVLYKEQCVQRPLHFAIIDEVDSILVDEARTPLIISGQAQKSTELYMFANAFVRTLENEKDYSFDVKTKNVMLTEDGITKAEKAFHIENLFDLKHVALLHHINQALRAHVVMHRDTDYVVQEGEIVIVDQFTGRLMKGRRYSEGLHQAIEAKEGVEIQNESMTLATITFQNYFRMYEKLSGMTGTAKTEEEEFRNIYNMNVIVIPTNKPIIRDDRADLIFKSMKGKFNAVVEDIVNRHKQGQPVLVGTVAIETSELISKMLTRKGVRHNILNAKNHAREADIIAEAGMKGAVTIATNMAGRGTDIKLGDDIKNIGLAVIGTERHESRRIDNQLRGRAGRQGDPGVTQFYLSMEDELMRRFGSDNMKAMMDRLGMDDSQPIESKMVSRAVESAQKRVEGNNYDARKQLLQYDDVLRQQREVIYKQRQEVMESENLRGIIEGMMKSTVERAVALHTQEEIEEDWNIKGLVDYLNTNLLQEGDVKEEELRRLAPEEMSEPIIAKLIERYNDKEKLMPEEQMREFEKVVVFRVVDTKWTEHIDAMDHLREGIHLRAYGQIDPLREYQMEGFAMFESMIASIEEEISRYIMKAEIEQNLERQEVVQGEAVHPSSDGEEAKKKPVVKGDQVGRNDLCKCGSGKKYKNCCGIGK", "experiment": "cell-based", "conditions": "IC50, Ion Channel activity, BGaSecA 1"}, "PaSecA": {"target": "PaSecA (Pseudomonas aeruginosa, UniProt Q9LCT3)", "sequence (Q9LCT3 whole entry)": "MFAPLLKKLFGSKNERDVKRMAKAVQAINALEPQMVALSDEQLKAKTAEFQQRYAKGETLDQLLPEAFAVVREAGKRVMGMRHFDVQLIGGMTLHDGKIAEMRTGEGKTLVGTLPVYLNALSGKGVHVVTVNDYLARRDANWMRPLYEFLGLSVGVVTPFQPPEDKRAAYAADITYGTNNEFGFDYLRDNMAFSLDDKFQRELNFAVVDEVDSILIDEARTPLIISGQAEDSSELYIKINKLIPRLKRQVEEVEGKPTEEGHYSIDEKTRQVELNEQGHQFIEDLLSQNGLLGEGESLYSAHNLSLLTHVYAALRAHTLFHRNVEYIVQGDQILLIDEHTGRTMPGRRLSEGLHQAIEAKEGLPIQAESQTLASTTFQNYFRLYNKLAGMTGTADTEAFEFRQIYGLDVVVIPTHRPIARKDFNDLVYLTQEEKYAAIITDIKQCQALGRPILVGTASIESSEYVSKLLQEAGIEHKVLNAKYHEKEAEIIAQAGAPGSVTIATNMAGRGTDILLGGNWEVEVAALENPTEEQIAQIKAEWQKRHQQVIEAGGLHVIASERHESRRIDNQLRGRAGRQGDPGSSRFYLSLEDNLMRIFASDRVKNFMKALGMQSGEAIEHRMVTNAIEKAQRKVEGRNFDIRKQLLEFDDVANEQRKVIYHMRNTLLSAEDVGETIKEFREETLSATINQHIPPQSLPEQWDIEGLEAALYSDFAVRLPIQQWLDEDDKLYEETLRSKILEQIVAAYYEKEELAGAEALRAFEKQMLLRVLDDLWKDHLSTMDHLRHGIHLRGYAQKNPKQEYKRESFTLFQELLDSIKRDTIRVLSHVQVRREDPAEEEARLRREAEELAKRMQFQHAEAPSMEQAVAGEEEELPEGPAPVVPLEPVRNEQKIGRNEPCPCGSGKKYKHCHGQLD", "experiment": "cell-based", "format": "cell-based", "conditions": "IC50, Ion Channel activity, PASecA, Table 1"}, "BsSecA": {"target": "BsSecA (Bacillus subtilis, UniProt P28366)", "sequence (P28366 whole entry)": "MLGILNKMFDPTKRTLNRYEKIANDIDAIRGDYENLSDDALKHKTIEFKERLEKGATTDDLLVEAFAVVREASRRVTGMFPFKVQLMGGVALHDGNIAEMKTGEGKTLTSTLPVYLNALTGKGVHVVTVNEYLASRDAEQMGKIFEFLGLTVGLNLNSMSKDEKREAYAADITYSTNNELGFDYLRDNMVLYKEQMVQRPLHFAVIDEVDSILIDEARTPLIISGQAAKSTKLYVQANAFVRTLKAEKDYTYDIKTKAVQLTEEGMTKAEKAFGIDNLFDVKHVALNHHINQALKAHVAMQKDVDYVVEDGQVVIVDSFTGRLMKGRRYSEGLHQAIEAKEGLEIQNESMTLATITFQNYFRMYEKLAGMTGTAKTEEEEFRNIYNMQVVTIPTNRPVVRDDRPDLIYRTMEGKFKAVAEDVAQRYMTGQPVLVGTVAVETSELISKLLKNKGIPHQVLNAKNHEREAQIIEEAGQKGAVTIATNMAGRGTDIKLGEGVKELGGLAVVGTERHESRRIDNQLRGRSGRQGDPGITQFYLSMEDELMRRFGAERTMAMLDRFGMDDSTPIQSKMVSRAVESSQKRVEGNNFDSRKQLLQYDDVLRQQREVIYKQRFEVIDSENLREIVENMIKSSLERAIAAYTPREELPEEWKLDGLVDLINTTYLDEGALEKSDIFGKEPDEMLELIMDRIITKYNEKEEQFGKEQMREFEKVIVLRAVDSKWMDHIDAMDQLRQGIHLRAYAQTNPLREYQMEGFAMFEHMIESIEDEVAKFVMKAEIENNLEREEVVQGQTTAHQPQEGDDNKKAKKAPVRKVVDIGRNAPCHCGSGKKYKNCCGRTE", "experiment": "cell-based", "set-up": "species or system B. subtilis", "conditions": "IC50, Ion Channel activity, BsSecA, Table 1"}, "MsSecA": {"target": "MsSecA (Mycolicibacterium smegmatis, UniProt P71533)", "sequence (P71533 whole entry)": "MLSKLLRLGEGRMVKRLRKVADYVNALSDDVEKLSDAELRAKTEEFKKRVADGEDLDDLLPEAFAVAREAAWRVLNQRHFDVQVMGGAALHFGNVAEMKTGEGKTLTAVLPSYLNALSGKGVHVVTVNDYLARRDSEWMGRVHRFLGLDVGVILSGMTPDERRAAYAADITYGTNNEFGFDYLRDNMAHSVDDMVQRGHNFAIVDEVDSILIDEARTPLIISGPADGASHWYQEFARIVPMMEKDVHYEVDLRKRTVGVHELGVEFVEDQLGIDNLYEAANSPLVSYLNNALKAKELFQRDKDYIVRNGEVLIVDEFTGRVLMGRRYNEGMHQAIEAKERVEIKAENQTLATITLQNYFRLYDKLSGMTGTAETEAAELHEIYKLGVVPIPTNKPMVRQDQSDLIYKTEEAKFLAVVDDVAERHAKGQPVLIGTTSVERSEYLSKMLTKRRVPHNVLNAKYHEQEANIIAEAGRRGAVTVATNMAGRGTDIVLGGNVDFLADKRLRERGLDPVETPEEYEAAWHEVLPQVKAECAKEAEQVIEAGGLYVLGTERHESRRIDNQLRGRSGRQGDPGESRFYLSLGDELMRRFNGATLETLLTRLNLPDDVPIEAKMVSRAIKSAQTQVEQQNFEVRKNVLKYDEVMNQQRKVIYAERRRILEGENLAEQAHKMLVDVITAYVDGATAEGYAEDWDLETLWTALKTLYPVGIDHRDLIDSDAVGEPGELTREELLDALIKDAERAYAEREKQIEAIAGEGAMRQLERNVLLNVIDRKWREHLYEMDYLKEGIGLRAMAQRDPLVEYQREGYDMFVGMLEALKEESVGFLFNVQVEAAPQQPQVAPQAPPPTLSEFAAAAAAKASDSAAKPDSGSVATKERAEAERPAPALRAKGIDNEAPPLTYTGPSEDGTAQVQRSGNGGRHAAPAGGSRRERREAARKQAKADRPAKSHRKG", "experiment": "SecA-liposomes ion-channel activity in oocytes, MsSecA", "format": "cell-based", "conditions": "Table 1"}, "S. pyogenes, MGAS5005": {"test_system": "S. pyogenes, MGAS5005", "experiment": "MIC95, S. pyogenes MGAS5005", "format": "cell-based", "conditions": "Streptococcus pyogenes, MGAS5005; read-out: MIC95, S. pyogenes MGAS5005"}, "S. aureus N315": {"test_system": "S. aureus N315", "experiment": "Bacteriostatic effect, S. aureus N315", "conditions": "Staphylococcus aureus, N315, read-out: Bacteriostatic effect, MIC, S. aureus N315"}, "BsSecA2": {"target": "BsSecA2", "conditions": "read-out: IC50, Intrinsic ATPase, BsSecA2; Table 1"}, "S. aureus 8325-4": {"test_system": "S. aureus 8325-4", "experiment": "Bacteriostatic effect, S. aureus 8325-4 (WT)", "conditions": "Staphylococcus aureus, 83254, read-out: Bacteriostatic effect, MIC, WT 8325-4"}, "SaSecA2": {"target": "T1, SaSecA2 (Staphylococcus aureus, UniProt Q2FUW6)", "T1 sequence (Q2FUW6 1-796)": "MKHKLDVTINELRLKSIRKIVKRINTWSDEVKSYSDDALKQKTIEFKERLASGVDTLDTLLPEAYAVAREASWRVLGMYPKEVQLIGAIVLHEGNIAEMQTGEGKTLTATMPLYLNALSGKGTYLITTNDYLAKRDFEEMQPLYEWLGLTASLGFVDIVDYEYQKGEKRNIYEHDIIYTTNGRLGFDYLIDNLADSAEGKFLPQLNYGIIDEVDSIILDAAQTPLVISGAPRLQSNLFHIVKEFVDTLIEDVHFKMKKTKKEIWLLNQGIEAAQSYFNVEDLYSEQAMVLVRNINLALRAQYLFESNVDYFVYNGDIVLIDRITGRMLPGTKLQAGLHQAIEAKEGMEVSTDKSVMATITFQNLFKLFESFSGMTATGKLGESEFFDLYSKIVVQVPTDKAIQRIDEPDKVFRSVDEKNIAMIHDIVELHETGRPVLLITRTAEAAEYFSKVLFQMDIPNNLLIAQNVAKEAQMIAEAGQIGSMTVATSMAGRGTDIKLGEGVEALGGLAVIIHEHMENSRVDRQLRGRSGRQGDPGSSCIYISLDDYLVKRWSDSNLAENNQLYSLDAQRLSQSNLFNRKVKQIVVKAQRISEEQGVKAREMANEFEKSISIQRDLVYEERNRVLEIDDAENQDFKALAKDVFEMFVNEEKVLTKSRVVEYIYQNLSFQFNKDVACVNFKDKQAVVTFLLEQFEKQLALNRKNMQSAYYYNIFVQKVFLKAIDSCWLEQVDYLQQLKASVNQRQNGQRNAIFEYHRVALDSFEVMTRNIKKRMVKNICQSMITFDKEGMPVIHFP", "experiment": "ATPase activity assay (malachite green), SaSecA2", "conditions": "IC50, ATPase activity, SaSecA2, Table 7"}, "[1]": {"test_system": "S. aureus deletion strains (NorA−, MepA−) and strains (NorA++, MepA++) with over-expressed efflux pumps", "experiment": "Antimicrobial effect with deletion or over expression of efflux pumps in S. aureus"}}}
{"smiles": "CCCCCCC1c2ccc(O)cc2Oc2cc(O)ccc21", "note": "[SCA-50]", "values": [{"measurement": "IC50", "setting": "BaSecA1", "value": 1, "unit": "µM"}, {"measurement": "IC50", "setting": "PaSecA", "value": 3, "unit": "µM"}, {"measurement": "IC50", "setting": "BsSecA", "value": 2.5, "unit": "µM"}, {"measurement": "IC50", "setting": "MsSecA", "value": 2.5, "unit": "µM"}, {"measurement": "MIC", "setting": "S. pyogenes, MGAS5005", "value": 6.25, "unit": "µM"}, {"measurement": "MIC", "setting": "S. aureus N315", "value": 3.7, "unit": "µg/mL"}, {"measurement": "IC50", "setting": "BsSecA2", "value": 20, "unit": "µM"}, {"measurement": "MIC", "setting": "S. aureus 8325-4", "value": 3.7, "unit": "µg/mL"}, {"measurement": "IC50", "setting": "SaSecA2", "value": 17.5, "unit": "µM"}, {"measurement": "Change of MIC on overexpression or deletion of NorA or MepA", "setting": "[1]", "value": "did not significantly change"}]}
